Source: patent publication US20070293459A1, “Method for Inhibiting Cellular Na+-K+ ATPase Activity” (JASON LIFE TECH INC. LTD., priority 2006, published 2007)

Key:
Na^+—K^+ ATPase [1] = assay: Na+-K+ ATPase activity of rat brain cortex plasma membrane (Pi liberated from ATP hydrolysis); type: biochemical; settings: for Na+-K+ ATPase activity (free Pi), MLB compared with ouabain: FIG. 2, various MLB or ouabain concentrations
Source text: (§1) First, Male Sprague-Dawley (NarII: SD) rats (3-month-old) were purchased from National Laboratory Animal Center (Nankang, Taipei) and raised under specific pathogen-free conditions. Animals were provided with rat chow (Rodent Laboratory Chow 5001, Purina, Mo.) and tap water throughout the studies. The rats received humane care in accordance with the guidelines of a guidebook for the care and use of laboratory animals. The animals were sacrificed by decapitation, and the brain and heart organs of the rats were removed immediately after complete exsanguination.
Next, the plasma membrane was isolated from the rat brain and heart at 4° C. The brain and heart homogenate were prepared respectively with homogenized plasma membrane in 10-20 volumes of […] sucrose solution containing 5.0 mM 4-(2-hydroxyethyl)-1-piperazineethanesulfonic acid (HEPES) and 1.0 mM EDTA, pH7.5. Then, the brain or heart homogenate was centrifuged at 1000×g for 10 min, and kept the resultant supernatant for further centrifuge at 17000×g for 30 min to obtain a crude plasma membrane fraction.
Then, the fraction was washed and suspended twice in 0.32 M sucrose HEPES-buffer, which was subjected to a discontinuous sucrose density gradient consisting of successive layers of […], and centrifuged at 63000×g for 1 hour. The plasma membrane was collected at the interface between […] sucrose to be further suspended in 0.32 M sucrose solution for enzyme assays within 2 hours.
Na^+—K^+ ATPase activity was determined by measuring the amount of inorganic phosphate (Pi) liberated from ATP hydrolysis.
First, commercial Na^+—K^+ ATPase from porcine cerebral cortex (Sigma, 0.3 units/mg) or a purified plasma membrane fraction incorporated into a reaction mixture of 1 ml containing 3 mM ATP, 5 mM MgCl2, 80 mM NaCl, 20 mM KCl, and 40 mM Tris-HCl, pH7.4, was prepared. The enzymatic reaction was terminated 15 min after Na^+—K^+ ATPase incorporation by adding 200 μl of 30% (WN) trichloroacetic acid.
After centrifugation at 6000 rpm for 15 min, supernatant of 500 μl measured the inorganic phosphate using spectrophotometric methods. Enzyme activity was expressed as μmol Pi liberated from ATP by 1 mg of Na^+—K^+ ATPase during 1 hour. Protein content was quantified using a Bradford protein assay kit (Sigma). For the observation of inhibitory effects on Na^+—K^+ ATPase activity, ouabain or MLB of various concentrations was incubated with commercial Na^+—K^+ ATPase or the purified plasma membrane fraction at 37° C. for 10 min prior to incorporation into the reaction mixture.

Na^+—K^+ ATPase [2] = assay: Na+-K+ ATPase activity of rat myocardium (cardiac) cell membrane (Pi liberated from ATP hydrolysis); type: biochemical; settings: FIG. 5, various MLB concentrations
Source text: as §1
Next, the plasma membrane was isolated from the rat brain and heart at 4° C. The brain and heart homogenate were prepared respectively with homogenized plasma membrane in 10-20 volumes of […] sucrose solution containing 5.0 mM 4-(2-hydroxyethyl)-1-piperazineethanesulfonic acid (HEPES) and 1.0 mM EDTA, pH7.5. […]
Na^+—K^+ ATPase activity was determined by measuring the amount of inorganic phosphate (Pi) liberated from ATP hydrolysis. […]
After centrifugation at 6000 rpm for 15 min, supernatant of 500 μl measured the inorganic phosphate using spectrophotometric methods. Enzyme activity was expressed as μmol Pi liberated from ATP by 1 mg of Na^+—K^+ ATPase during 1 hour. Protein content was quantified using a Bradford protein assay kit (Sigma). […]

[3] = test system: cerebral hypoxia caused by sodium nitrite; assay: Rat survival test after sodium nitrite (cerebral hypoxia); type: in vivo; settings: FIG. 6, sodium nitrite 225 mg/kg
Description: Sodium nitrite will trigger the oxyhemoglobin converts into methemoglobin to cause the hypoxia and cell infract.
3-4 week old rats (about 20˜22 g) were randomly divided into three sample groups and one control group, and each group has 5 rats. […] After feeding for 7 days, one hour later of the final feeding, each rat was injected with sodium nitrite (225 mg/kg). Then count time on the spot to record the survival time of rats.

[4] = test system: cerebral infarct after ischemia-reperfusion; assay: Focal cerebral ischemia-reperfusion (CCA/MCA occlusion) infarct test in gerbils; type: in vivo, gerbil; settings: for cell infarct volume vs control: FIG. 7; for cell infarct size vs control: FIG. 8

| Compound | Na+-K+ ATPase activity (inorganic phosphate liberated from ATP hydrolysis) with increasing concentration (Na^+—K^+ ATPase [1]; FIG. 1, rat brain cortex, various MLB concentrations, 37° C. 10 min preincubation) | Na+-K+ ATPase activity (free Pi), MLB compared with ouabain (Na^+—K^+ ATPase [1]; rat brain cortex) | Na+-K+ ATPase activity (free Pi) of brain cortex cell membrane (Na^+—K^+ ATPase [1]; FIG. 4, rat brain cortex cell membrane, various MLB concentrations) | Na+-K+ ATPase activity (free Pi) of cardiac cell membrane (Na^+—K^+ ATPase [2]) | survival rate vs control after sodium nitrite ([3]; MLB 3 mg/Kg for 7 days) | survival rate vs control after sodium nitrite ([3]; MLB 9 mg/Kg for 7 days) | survival rate vs control after sodium nitrite ([3]; MLB 18 mg/Kg for 7 days) | cell infarct volume vs control ([4]; MLB 1.5 mg/Kg intraperitoneally 30 min before reperfusion) | cell infarct volume vs control ([4]; MLB 3 mg/Kg intraperitoneally 30 min before reperfusion) | cell infarct size vs control ([4]; MLB 0.3 mg/Kg forced oral fed 30 min after reperfusion) | cell infarct size vs control ([4]; MLB 3 mg/Kg forced oral fed 30 min after reperfusion) |
| --- | --- | --- | --- | --- | --- | --- | --- | --- | --- | --- | --- |
| O=C(/C=C/c1ccc(O)c2c1[C@H](C(=O)O[C@H](Cc1ccc(O)c(O)c1)C(=O)[O-])[C@@H](c1ccc(O)c(O)c1)O2)O[C@H](Cc1ccc(O)c(O)c1)C(=O)[O-].[Mg+2] [MLB, magnesium lithospermate B] | the measured free inorganic phosphate (Pi) decreases with increased MLB concentration | the inhibitory behavior of MLB is consistent with the ouabain | the MLB is able to inhibit the Na^+—K^+ ATPase activity of the cortex cell membrane | MLB is able to inhibit the Na^+—K^+ ATPase activity of cardiac cell membranes | significant (p<0.05) increase (two folds) | significant (p<0.05) different from the control group | significant (p<0.05) different from the control group | effective repression of cell infarct | significant (p<0.01) difference from the control group | effective repression of cell infarct | significant (p<0.01) difference from the control group |
| C[C@@H]1O[C@@H](O[C@H]2C[C@@H](O)[C@]3(CO)[C@H]4[C@H](O)C[C@]5(C)[C@@H](C6=CC(=O)OC6)CC[C@]5(O)[C@@H]4CC[C@]3(O)C2)[C@H](O)[C@H](O)[C@H]1O [ouabain, reference compound] | – | the amount of free inorganic phosphate (Pi) is dependent on the raised inhibitor (MLB or ouabain) dosage | – | – | – | – | – | – | – | – | – |
